Our source for the AC50 and activity change, negative = inhibition values is PubChem BioAssay AID540268 (Broad Institute, 2011).

Active and inactive are the calls of the source. No rule for the calls is given here.

The first test is described as follows: growth inhibition of yeast carrying parasite Hsp90, dose response, anti-malarial Hsp90 inhibitor project, ATP luminescence, 48 h, cherry-picked samples (AID 540268).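 As to activity change, negative = inhibition: 0% = neutral control wells and -100% = positive control wells.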 To be noted: yeast expressing the parasite Hsp90, ATP luminescence.
For `COc1ccc2c(c1)OC[C@H]1[C@H]2N2C(=O)c3cc(Br)ccc3NC(=O)[C@@]2(C)[C@H]1c1ccccc1`, the concentration at half-maximal activity (AC50) is 0.658 µM.

For the molecule `O=[N+]([O-])c1ccc(NC(=S)NCCc2ccc(Cl)cc2)cc1`, the AC50 is 4.25 µM. With `COCC(=O)n1nc(NCc2ccc(OC)cc2)nc1NCc1ccc(OC)cc1`, the AC50 is 8.06 µM. Still for that read-out and setting: then `O=c1cc2oc3cc(O)c(O)cc3c(-c3ccccc3[N+](=O)[O-])c-2cc1O`, with 3.19 µM; and `CN1CCN(C(c2ccc(Br)cc2)c2cc(Cl)c3cccnc3c2O)CC1` (stereo unspecified), with 0.535 µM. Still for that read-out and setting: as for `O=C1CCCN1CCC1CCN(C2CC(=O)N(c3ccc(Cl)cc3)C2=O)CC1` (stereo unspecified), the figure is 4.79 µM; as for `O=[N+]([O-])c1ccc(Sc2cccc[n+]2[O-])c2nonc12`, 6.88 µM. On to `O=C(c1ccc(-c2ccccc2)cc1)C1CCCN(C(=O)c2cncs2)C1` (stereo unspecified), for which the AC50 was 2.72 µM.

On to `Clc1ccc2[nH]c3c(c2c1)CCc1cn[nH]c1-3`, for which the half-maximal activity concentration (AC50) is 8.79 µM. Same read-out and setting: as for `CC(C)OC(=O)c1ccc(NCc2cc(O)ccc2O)cc1`, the figure is 6.94 µM; as for `COc1cccc(N=Nc2ccc3cccnc3c2O)c1`, 2.39 µM. For `CCc1ccccc1NC(=O)c1cccc(Oc2ccc([N+](=O)[O-])cc2Cl)c1`, the half-maximal activity concentration (AC50) was 4.12 µM. The same measure, in the same setting: as for `CC(C)(C)C(=O)NCC12C=CC(O1)C1C(=O)N(c3ccccc3)C(=O)C12` (stereo unspecified), the figure is 5.05 µM; as for `O=S(=O)(c1c(F)cccc1F)N(CCc1ccc(F)cc1)C[C@@H](O)COCc1ccccc1`, 1.2 µM; as for `COc1ccc(N(C(=O)c2ccncc2)S(=O)(=O)c2ccc(Cl)cc2)cc1`, 0.562 µM. Still for that read-out and setting: then `COc1cccc(-c2nc(NC3CCCC3)c3ccccc3n2)c1O`, with 4.23 µM; and `C/C(=N\Nc1ncnc2sc(C)c(C)c12)c1ccccn1`, with 2.01 µM. For `Oc1ccc(Cl)cc1Cc1cc(Cl)ccc1O`, the half-maximal activity concentration (AC50) was 5.41 µM. Regarding `COC[C@H]1OC(=O)c2coc3c2[C@@]1(C)C1=C(C3=O)[C@@H]2CCC(=O)[C@@]2(C)C[C@H]1OC(C)=O`, the AC50 is 0.215 µM.

For the molecule `O=C(c1ccc2c(=O)n(C3CCCC3)c(=S)[nH]c2c1)N1CCc2ccccc21`, the AC50 was 6.25 µM. The same measure, in the same setting: then `Cc1cccc(/C=C/C(=O)c2ccc([N+](=O)[O-])o2)c1`, with 1.56 µM. Same read-out and setting: as for `O=C(/C=C/c1ccnc2ccccc12)c1cccs1`, the figure is 4.64 µM.

On to `O=C(OC12CC3CC(CC(C3)C1)C2)c1ccc(NCc2cc(O)ccc2O)cc1`, for which the AC50 is 8.91 µM. Still for that read-out and setting: as for `Oc1c(C(Nc2cccc(C(F)(F)F)c2)c2ccncc2)ccc2cccnc12` (stereo unspecified), the figure is 5.15 µM.

Regarding `CC(=O)Nc1ccc(Nc2cc(C(C)C)nc3c(-c4ccccc4)c(C)nn23)cc1`, the AC50 was 3.68 µM. In the case of `O=C(C=Cc1cccc(O)c1)c1ccccc1O`, the half-maximal activity concentration (AC50) is 1.89 µM. In the case of `COc1ccc(OC)c(NC(=O)Nc2ccc(O)c3ccccc23)c1`, the AC50 is below 0.195 µM. Still for that read-out and setting: as for `CN(C)CC1Oc2ccccc2OC1(O)c1ccccc1` (stereo unspecified), the figure is 2.98 µM; as for `CC1=CN2C(=N)/C(=C/c3ccc([N+](=O)[O-])o3)C(=O)N=C2S1`, 1.34 µM; as for `O=C1/C(=C\c2cccc(O)c2O)SC(=S)N1Cc1ccccc1`, 9.6 µM. Still for that read-out and setting: as for `O=C(/C=C/c1ccc(Cl)c([N+](=O)[O-])c1)c1cccnc1`, the figure is 0.806 µM; as for `CCCCCCCCCC[N+](C)(C)CC/C=C1/c2ccccc2Sc2ccc(Cl)cc21`, 6.32 µM; as for `Cc1cc(Cl)ccc1C(=O)C1CCCN(C(=O)c2cncs2)C1` (stereo unspecified), 4.62 µM.

For the molecule `C=C(C)COc1ccc(-c2[nH]ncc2Oc2cccc(OC)c2)c(O)c1`, the AC50 is 8.1 µM. Same read-out and setting: as for `O=C(CCSc1nnc(-c2ccncc2)o1)Nc1ccc(Cl)cc1`, the figure is 2.87 µM; as for `O=C1C2C3C=CC(C3)C2C(=O)N1CN(Cc1ccccc1)CN1C(=O)C2C3C=CC(C3)C2C1=O` (stereo unspecified), 16.6 µM; as for `CC(=O)N(C1=C(Cl)C(=O)c2ccccc2C1=O)C1CCCCC1`, below 0.195 µM. Still for that read-out and setting: then `Cc1ccc(NC(=O)c2cc(N3C(=O)C=CC3=O)ccc2Cl)cc1C`, with 0.92 µM; and `CC1=C(O)C(=O)C=C2C1=CC=C1C2(C)CCC2(C)C3CC(C)(C(=O)O)CCC3(C)CCC12C` (stereo unspecified), with 1.48 µM. Regarding `O=C1/C(=C\c2ccc(Cl)c(Cl)c2)CN(C(=O)CCN2CCOCC2)C/C1=C/c1ccc(Cl)c(Cl)c1`, the AC50 was 3.5 µM. Same read-out and setting: as for `COc1cc(C=NO)nc(-c2ccccn2)c1`, the figure is 2.32 µM; as for `CC1CCCCC1NC(=O)/C(C#N)=C/c1ccccc1F` (stereo unspecified), 0.87 µM; as for `CCCCOc1ccc(C(=O)NNC(=S)NC(=O)CC)cc1`, 4.2 µM. Regarding `COc1ccc(C2=CC3=C(Br)C(=O)C(C)(O)C(=O)C3=CO2)cc1` (stereo unspecified), the AC50 was 1.73 µM.

As to `O=S(=O)(NC1CCCCCC1)c1ccc(Br)s1`, the AC50 is 3.13 µM. Consider `CCOc1ccc(NCc2cc3c(C(C)(C)C)nn(-c4ccccc4)c3[nH]c2=O)cc1`, for which the AC50 was 18.1 µM.

Consider `Cc1ccc(C(=O)c2no[n+]([O-])c2C(=O)c2ccc(C)cc2)cc1`, for which the AC50 was 2.03 µM. The same measure, in the same setting: then `COc1cc(/C=C/[N+](=O)[O-])ccc1OC(=O)c1cc2ccccc2oc1=O`, with 1.3 µM; and `Oc1cc(Cl)ccc1Oc1ccc(Cl)cc1Cl`, with 7.54 µM.

`COc1ccc2c(c1)OC[C@H]1[C@H]2N2C(=O)c3cc(C)ccc3NC(=O)[C@@]2(C)[C@H]1c1ccccc1`: the concentration at half-maximal activity (AC50) is 0.988 µM. Still for that read-out and setting: as for `O=C(c1ccccc1)c1ccccc1N1C(=O)C=CC1=O`, the figure is 1.71 µM. On the same count and under the same terms, then `CCCCCCC(=O)N(O)C1CC(=O)N(c2ccc(Cl)cc2)C1=O` (stereo unspecified), with 1.65 µM.

For `CCC(=O)NC(c1ccc(Cl)cc1Cl)c1ccc2cccnc2c1O` (stereo unspecified), the half-maximal activity concentration (AC50) is 3.96 µM. As to `Oc1c(Cl)cccc1Cc1cc(Cl)cc(Cl)c1O`, the AC50 was 0.618 µM. Same read-out and setting: as for `CCC(=O)NC(c1cccs1)c1cc(Cl)c2cccnc2c1O` (stereo unspecified), the figure is 3.73 µM. On the same count and under the same terms, then `CCN1CCN(C(c2ccc(C(F)(F)F)cc2)c2ccc3cccnc3c2O)CC1` (stereo unspecified), with 1.54 µM; and `CC(C)C(=O)NC(c1cccc([N+](=O)[O-])c1)c1ccc2cccnc2c1O` (stereo unspecified), with 2.73 µM; and `Cc1cc(N2CCN(C(=O)c3ccco3)CC2)n2ncc(-c3ccccc3)c2n1`, with 2.31 µM. The same measure, in the same setting: as for `N/C(Cc1ccc(Cl)c(Cl)c1)=N\OC(=O)c1cccs1`, the figure is 2.22 µM. Turning to `O=C(C=P(c1ccccc1)(c1ccccc1)c1ccccc1)c1ccccc1-c1ccccc1C(=O)C=P(c1ccccc1)(c1ccccc1)c1ccccc1`, the AC50 was 5.12 µM. The same measure, in the same setting: as for `Cc1ccc(C(C)C)c(OCc2ccc(C(=O)N/N=C/c3cccc(O)c3O)cc2)c1`, the figure is 1.62 µM; as for `CCOC(=O)c1ccc(N2C(=O)CC(N(C)CCc3ccc(OC)c(OC)c3)C2=O)cc1` (stereo unspecified), 3.14 µM; as for `OC(CNCCC1C=Nc2ccccc21)Cn1c2ccc(Cl)cc2c2cc(Cl)ccc21` (stereo unspecified), 7.56 µM.

On to `O=c1ccc(N=Nc2ccccc2)ccc1O`, for which the AC50 is 1.48 µM. On the same count and under the same terms, then `CC[C@H](C)/C=C(C)/C=C/C1=CC2=C(Cl)C(=O)[C@](C)(OC(C)=O)C(=O)C2=CO1`, with 2.11 µM. On the same count and under the same terms, as for `CCCCC(=O)NC(c1ccc(C(C)C)cc1)c1ccc2cccnc2c1O` (stereo unspecified), the figure is 6.98 µM; as for `O=C1Nc2ccc(Br)cc2/C1=C/C(=O)c1ccccc1`, 1.42 µM; as for `CCCCC(=O)NC(c1ccccc1)c1ccc2cccnc2c1O` (stereo unspecified), 23.6 µM. On to `CSc1nc2ccc(S(=O)(=O)NC3CCCCC3)cc2s1`, for which the AC50 was 2.92 µM. With `COc1ccc(NC(=O)/C(Cl)=C(/Cl)S(=O)Cc2ccccc2)cn1` (stereo unspecified), the half-maximal activity concentration (AC50) was 2.54 µM. Same read-out and setting: as for `O=C1NC(=S)NC(=O)C1=Cc1ccc(Br)s1`, the figure is 4.48 µM. As for `CC(=NNC(=S)Nc1cccc(C)c1)c1ccccn1`, the half-maximal activity concentration (AC50) was 4.3 µM. With `Cc1ccc(O)c(-c2cc(-c3cccc(Br)c3)n[nH]2)c1`, the half-maximal activity concentration (AC50) is 4.38 µM. Same read-out and setting: then `CCCC(=O)NC(c1cccs1)c1cc(Cl)c2cccnc2c1O` (stereo unspecified), with 1.58 µM. In the case of `CCCCCCOc1ccc(N2C(=O)CC(N3CCC(C(=O)OCC)CC3)C2=O)cc1` (stereo unspecified), the AC50 was 4.38 µM.

For the molecule `O=C1C=CC(=O)N1CCNc1ncc(C(F)(F)F)cc1Cl`, the AC50 is 0.674 µM. The same measure, in the same setting: as for `CC(=O)C1=C(c2ccc(Br)cc2)C(=O)c2ccccc2C1=O`, the figure is 7.82 µM. Regarding `Cc1ccc(C(=O)Sc2cccccc2=O)cc1`, the half-maximal activity concentration (AC50) is 6.77 µM. Same read-out and setting: then `CCCCC(CC)CN=C(N)NC(N)=NCCCCCCN=C(N)NC(N)=NCC(CC)CCCC` (stereo unspecified), with 4.34 µM; and `COc1ccc(-c2nnc3n(CCc4ccccc4)c(=O)c4ccccc4n23)c(OC)c1`, with 8.97 µM; and `O=C(OCC(=O)N1CCN(C(=O)c2ccco2)CC1)c1cc(-c2cccc(Br)c2)nc2ccccc12`, with 4.39 µM. Same read-out and setting: then `O=[N+]([O-])c1cc(S(=O)(=O)C(F)(F)F)ccc1Sc1nc2ccccc2s1`, with 3.43 µM. Still for that read-out and setting: as for `CCCCCCCCCCCCCCCC[N+](C)(C)CCN(Cc1ccc(OC)cc1)c1ncccn1`, the figure is 4.14 µM.

Consider `O=C1Nc2ccc(Br)cc2C12NNc1ccccc1O2` (stereo unspecified), for which the AC50 is 1.46 µM. Same read-out and setting: then `COc1ccc(C(C#N)=C2C=CC(=NO)C=C2)cc1`, with 4.56 µM.

With `Cc1cc(C)c(S(=O)(=O)NCC23C=CC(O2)C2C(=O)N(c4ccccc4)C(=O)C23)c(C)c1` (stereo unspecified), the AC50 is 3.21 µM. Still for that read-out and setting: then `CN1C(=O)C(N=Nc2ccc([N+](=O)[O-])cc2)SC1=S` (stereo unspecified), with 3.87 µM; and `CCN(CC)c1ccc(/C=C2/SC(=O)N(C(C)C)C2=O)o1`, with 13.5 µM. Still for that read-out and setting: as for `CCCC(=O)NC(c1ccc(OC)cc1)c1ccc2cccnc2c1O` (stereo unspecified), the figure is 6.15 µM; as for `CC1=C(C)/C(=N\OS(=O)(=O)c2ccc(C)cc2)C=CC1=O`, 1.22 µM. The same measure, in the same setting: then `Oc1c(C(Nc2ccccn2)c2cccnc2)cc(Cl)c2cccnc12` (stereo unspecified), with 8.09 µM; and `COc1cc2c(cc1/C=C/[N+](=O)[O-])OCO2`, with 3.11 µM. Consider `Cc1[nH]n(-c2ccc([N+](=O)[O-])cc2)c(=O)c1C=NCCN1CCN(C(=O)c2ccccc2F)CC1`, for which the AC50 is 6.44 µM.

Staying with this test, now noted: yeast expressing the parasite Hsp90, ATP luminescence, at 26 µM (top of the series).
With `O=C(CCN1C(=O)/C(=C/c2cccs2)SC1=S)NC1=NCCS1`, the activity change, negative = inhibition was 60.4% (inactive). Same read-out and setting: then `COc1ccc(C(=O)Nc2cc(C(=O)c3ccccc3)c(C)oc2=O)cc1`, with 36.8% (inactive); and `Cc1ccc(/C=C2/NC(=O)N(Cc3ccc(Br)cc3)C2=O)o1`, with 47.3% (inactive).

Broadly, the AC50 is the concentration giving half of the maximal activity seen.
